Assay: MDI inserted through a port into an oxygen mask without extender tube at 2-15 L/min oxygen flow, measured blood levels
Format: in vivo, patient
Details: 2-15 L/min oxygen flow (wash-out)
Description: The relatively high flow oxygen jet disperses the drug aerosol initially expressed into the mask from the MDI that was inserted into the mask, and as a result, much of the drug is dispersed around the interior of the mask and is washed out of the mask and back out through the MDI housing to ambient by the flow of oxygen, rather than being inhaled by the patient.
In this invention, an extender tube 300 (FIG. 12) is provided that can be inserted into or over the mouthpiece section 230 of an MDI body (FIGS. 8A, 8B, and 9). […] This use of the tube to channel the inhalable medication from an MDI to the mouth of the patient addresses the problem noted above that simply inserting an MDI mouthpiece into a mask with a flow of oxygen causes “wash-out” of the drug, i.e., the drug aerosol or particles (i.e., the discharge from an MDI) are dispersed within the mask and out to ambient, and as a result measured drug levels inhaled by the patient are very low. In the instant invention, measured drug levels of the MDI drug in the lung are high.

measured blood levels of the albuterol drug: negligible
Compound: CC(C)(C)NCC(O)c1ccc(O)c(CO)c1 (stereo not shown) [albuterol HFA, albuterol]
